According to patent US9193697B2, “Oxazole derivatives useful as modulators of FAAH” (MERCK SHARP & DOHME CORP., priority 2010, dated 2015):

Biological target: human FAAH (Fatty Acid Amide Hydrolase) (Homo sapiens (Human), UniProt O00519)
Test: FAAH inhibition, human FAAH CHO whole cell format
Type: cell-based
Text: To assist in assay development stable cell lines for human, murine and rat full length FAAH were developed. […] The full length FAAH was subcloned into the mammalian expression vector, pcDEF.neo, using XbaI and EcoRI restriction sites and used for stable cell line generation.
The full length murine FAAH was subcloned into the mammalian expression vector, pcDEFneo using either EcoRI (murine) or KpnI and EcoRI (rat) restriction sites. Chinese hamster ovary cells (CHO) were transfected following manufacturers protocol (AMAXA). Forty eight hours post transfection, cells were trypsinized and transferred to 96 well plates in Iscove's DMEM media supplemented with 2 mM Glutamine, 10% fetal calf serum, 1 mg/ml geneticin and HT Supplement (0.1 mM sodium hypoxanthine, 0.016 mM thymidine) in order to isolate single clones. […] Following removal of tissue culture media cells were dislodged following addition of Cellstripper (Mediatech, Inc. Manassas, Va.) and transferred to 96 well black clear bottom assay plate, centrifuged at 1,000 rpm for 3 mins and media removed and replaced with assay buffer (50 mM Tris pH8.0, 1 mM EDTA, 0.1% fatty acid free BSA). The reaction was initiated by addition of fluorescent substrate, AMC Arachidonoyl Amide (Cayman Chemical, Ann Arbor, Mich.) to 1 μM and reaction allowed to proceed for 2 hours at room temperature. Release of fluorescence was monitored in a CytoFluor Multiplate Reader.
Assays are performed on either cell lysate or microsome fractions prepared as described or in whole cell format employing either the fluorescent substrate AAMCA (Cayman chemical, Ann Arbor, Mich.,) or ^3H-anandamide ([ETHANOLAMINE-1-3H] American Radiolabeled Chemicals; 1 mCi/ml). […] AAMCA substrate was used to achieve a final concentration of 1 μM and reaction allowed to proceed at room temperature for 1-3 hours. […] Whole cell assay is conducted with cells harvested after rinsing tissue culture flasks three times with Ca^++Mg^++ free PBS, incubating for 10 min in Enzyme free dissociation media and centrifuging for 5 minutes at 1,000 rpm in table top centrifuge. Cells are resuspended in assay buffer at desired cell number in (4×10^4 cells/assay in 96-well format; 1×10^4 cells/assay in 384-well format) and assayed as described.

Chain of human FAAH (Fatty Acid Amide Hydrolase) (O00519 whole entry): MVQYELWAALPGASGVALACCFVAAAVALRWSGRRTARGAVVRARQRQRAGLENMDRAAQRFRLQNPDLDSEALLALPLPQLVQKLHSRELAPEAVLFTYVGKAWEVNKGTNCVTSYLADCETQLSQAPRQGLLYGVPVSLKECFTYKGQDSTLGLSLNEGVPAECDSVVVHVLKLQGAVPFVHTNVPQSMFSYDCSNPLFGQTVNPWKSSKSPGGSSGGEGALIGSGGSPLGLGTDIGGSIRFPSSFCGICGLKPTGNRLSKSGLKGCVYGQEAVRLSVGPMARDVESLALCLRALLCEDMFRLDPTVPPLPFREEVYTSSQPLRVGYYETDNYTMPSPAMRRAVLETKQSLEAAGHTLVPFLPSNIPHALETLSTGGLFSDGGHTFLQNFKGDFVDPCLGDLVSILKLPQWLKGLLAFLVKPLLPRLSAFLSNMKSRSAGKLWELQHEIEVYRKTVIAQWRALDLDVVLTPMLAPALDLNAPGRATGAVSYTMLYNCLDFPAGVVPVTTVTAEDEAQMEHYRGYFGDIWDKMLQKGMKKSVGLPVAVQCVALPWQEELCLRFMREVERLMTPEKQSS

IC50	SMILES
14.2 nM	COC(=O)[C@H]1CC[C@@H](c2nc(-c3ccc(C(C)(C)O)nc3)c(Sc3ccc(Cl)cc3)o2)CC1 [Example B5.34, methyl cis-4-{5-[(4-chlorophenyl)sulfanyl]-4-[6-(2-hydroxypropan-2-yl)pyridin-3-yl]-1,3-oxazol-2-yl}cyclohexanecarboxylate]
774 nM	Clc1ccc(Sc2oc(C3CCOCC3)nc2-c2ccc3nncn3c2)cc1 [Example B5.23, 6-{5-[(4-chlorophenyl)sulfanyl]-2-(tetrahydro-2H-pyran-4-yl)-1,3-oxazol-4-yl}[1,2,4]triazolo[4,3-a]pyridine]
≥ 10000 nM	O=C(OCc1ccccc1)N1CCC(c2nc(C3CCOCC3)oc2Sc2ccc(Cl)cn2)CC1 [Example A7.35, benzyl 4-{5-[(5-chloropyridin-2-yl)sulfanyl]-2-(tetrahydro-2H-pyran-4-yl)-1,3-oxazol-4-yl}piperidine-1-carboxylate]
≥ 10000 nM	Cc1nnc(-c2cccc(-c3nc(C4CCOCC4)oc3Sc3ccc(Cl)cc3)c2)o1 [Example B5.29, 2-(3-{5-[(4-chlorophenyl)sulfanyl]-2-(tetrahydro-2H-pyran-4-yl)-1,3-oxazol-4-yl}phenyl)-5-methyl-1,3,4-oxadiazole]
141 nM	CN1CCN(c2ccc(-c3nc(C4CCOCC4)oc3Sc3ccc(Cl)cc3)cn2)CC1 [Example B5.27, 1-(5-{5-[(4-chlorophenyl)sulfanyl]-2-(tetrahydro-2H-pyran-4-yl)-1,3-oxazol-4-yl}pyridin-2-yl)-4-methylpiperazine]
≥ 10000 nM	COCCOC(=O)N1CCC(c2nc(C3CCOCC3)oc2Sc2ccc(Cl)cn2)CC1 [Example A7.38]
142 nM	COC(=O)N1CCC(c2nc(C3CCOCC3)oc2Sc2ccc(Cl)cn2)CC1 [Example A7.32, methyl 4-{5-[(5-chloropyridin-2-yl)sulfanyl]-2-(tetrahydro-2H-pyran-4-yl)-1,3-oxazol-4-yl}piperidine-1-carboxylate]
506 nM	CN(C(=O)c1ccc(-c2nc(C3CCOCC3)oc2Sc2ccc(Cl)cc2)cc1)C1CCOC1 (centres unmarked) [Example B5.26, 4-{5-[(4-chlorophenyl)sulfanyl]-2-(tetrahydro-2H-pyran-4-yl)-1,3-oxazol-4-yl}-N-methyl-N-(tetrahydrofuran-3-yl)benzamide]
9.5 nM	COC(=O)[C@H]1CC[C@H](c2nc(-c3ccc(C(C)(C)O)nc3)c(Sc3ccc(Cl)cc3)o2)CC1 [Example B5.33, methyl trans-4-{5-[(4-chlorophenyl)sulfanyl]-4-[6-(2-hydroxypropan-2-yl)pyridin-3-yl]-1,3-oxazol-2-yl}cyclohexanecarboxylate]
2210 nM	CC(C)(O)c1ccc(-c2nc(C3CCOCC3)oc2Sc2ccc(OC(F)F)cn2)cn1 [Example A7.7, 2-{5-[5-{[5-(difluoromethoxy)pyridin-2-yl]sulfanyl}-2-(tetrahydro-2H-pyran-4-yl)-1,3-oxazol-4-yl]pyridin-2-yl}propan-2-ol]
383 nM	O=C(c1ccc(-c2nc(C3CCOCC3)oc2Sc2ccc(Cl)cc2)cc1)N1CCOC1 [Example B5.20, (4-{5-[(4-chlorophenyl)sulfanyl]-2-(tetrahydro-2H-pyran-4-yl)-1,3-oxazol-4-yl}phenyl)(1,3-oxazolidin-3-yl)methanone]
2810 nM	COc1ccc(OC(=O)N2CCC(c3nc(C4CCOCC4)oc3Sc3ccc(Cl)cn3)CC2)cc1 [Example A7.39, 4-methoxyphenyl 4-{5-[(5-chloropyridin-2-yl)sulfanyl]-2-(tetrahydro-2H-pyran-4-yl)-1,3-oxazol-4-yl}piperidine-1-carboxylate]
205 nM	Clc1ccc(Sc2oc(C3CCOCC3)nc2-c2cnc3n2CCC3)cc1 [Example B5.25, 3-{5-[(4-chlorophenyl)sulfanyl]-2-(tetrahydro-2H-pyran-4-yl)-1,3-oxazol-4-yl}-6,7-dihydro-5H-pyrrolo[1,2-a]imidazole]
852 nM	CC(C)(O)c1ccc(-c2nc(C3CCOCC3)oc2Sc2ncc(Cl)cn2)cn1 [Example A7.3, 2-(5-{5-[(5-chloropyrimidin-2-yl)sulfanyl]-2-(tetrahydro-2H-pyran-4-yl)-1,3-oxazol-4-yl}pyridin-2-yl)propan-2-ol]
≥ 10000 nM	CC(C)(O)c1ccc(-c2nc(C3CCOCC3)oc2Sc2ccccc2Cl)cn1 [Example A7.10, 2-(5-{5-[(2-chlorophenyl)sulfanyl]-2-(tetrahydro-2H-pyran-4-yl)-1,3-oxazol-4-yl}pyridin-2-yl)propan-2-ol]
1530 nM	CC(c1ccc(-c2nc(C3CCOCC3)oc2Sc2ccc(Cl)cc2)cc1)N1CCOCC1 (centres unmarked) [Example B5.17, 4-[1-(4-{5-[(4-chlorophenyl)sulfanyl]-2-(tetrahydro-2H-pyran-4-yl)-1,3-oxazol-4-yl}phenyl)ethyl]morpholine]
≥ 10000 nM	O=C(c1ccc(-c2nc(C3CCOCC3)oc2Sc2ccc(Cl)cc2)cn1)N1CCOCC1 [Example B5.24, (5-{5-[(4-chlorophenyl)sulfanyl]-2-(tetrahydro-2H-pyran-4-yl)-1,3-oxazol-4-yl}pyridin-2-yl)(morpholin-4-yl)methanone]
4250 nM	CC(C)(O)c1ccc(-c2nc(C3CCOCC3)oc2Sc2ccc(F)cn2)cn1 [Example A7.5, 2-(5-{5-[(5-fluoropyridin-2-yl)sulfanyl]-2-(tetrahydro-2H-pyran-4-yl)-1,3-oxazol-4-yl}pyridin-2-yl)propan-2-ol]
63.8 nM	CC(C)(O)c1ccc(-c2nc([C@H]3CC[C@@H](CO)CC3)oc2Sc2ccc(Cl)cc2)cn1 [Example B5.36, 2-(5-{5-[(4-chlorophenyl)sulfanyl]-2-[cis-4-(hydroxymethyl)cyclohexyl]-1,3-oxazol-4-yl}pyridin-2-yl)propan-2-ol]
9700 nM	CCNC(=O)N1CCC(c2nc(C3CCOCC3)oc2Sc2ccc(Cl)cn2)CC1 [Example A7.40, 4-{5-[(5-chloropyridin-2-yl)sulfanyl]-2-(tetrahydro-2H-pyran-4-yl)-1,3-oxazol-4-yl}-N-ethylpiperidine-1-carboxamide]
≥ 10000 nM	CC(C)(O)c1ccc(-c2nc(C3CCOCC3)oc2Sc2cccc(Cl)c2)cn1 [Example A7.9, 2-(5-{5-[(3-chlorophenyl)sulfanyl]-2-(tetrahydro-2H-pyran-4-yl)-1,3-oxazol-4-yl}pyridin-2-yl)propan-2-ol]
308 nM	CC(O)(CO)c1ccc(-c2nc(C3CCOCC3)oc2Sc2ccc(Cl)cc2)cn1 (centres unmarked) [Example B5.37, 2-(5-{5-[(4-chlorophenyl)sulfanyl]-2-(tetrahydro-2H-pyran-4-yl)-1,3-oxazol-4-yl}pyridin-2-yl)propane-1,2-diol]
707 nM	Clc1ccc(Sc2oc(C3CCOCC3)nc2-c2ccc(N3CCNCC3)cc2)cc1 [Example B5.21, 1-(4-{5-[(4-chlorophenyl)sulfanyl]-2-(tetrahydro-2H-pyran-4-yl)-1,3-oxazol-4-yl}phenyl)piperazine]
1920 nM	CC(C)OC(=O)N1CCC(c2nc(C3CCOCC3)oc2Sc2ccc(Cl)cn2)CC1 [Example A7.37, propan-2-yl 4-{5-[(5-chloropyridin-2-yl)sulfanyl]-2-(tetrahydro-2H-pyran-4-yl)-1,3-oxazol-4-yl}piperidine-1-carboxylate]
1810 nM	CC(=O)N1CCC(c2nc(C3CCOCC3)oc2Sc2ccc(Cl)cn2)CC1 [Example A7.33, 1-(4-{5-[(5-chloropyridin-2-yl)sulfanyl]-2-(tetrahydro-2H-pyran-4-yl)-1,3-oxazol-4-yl}piperidin-1-yl)ethanone]
≥ 10000 nM	C[N+]1(C)CCN(c2ccc(-c3nc(C4CCOCC4)oc3Sc3ccc(Cl)cc3)cn2)CC1 [Example B5.14, 4-(5-{5-[(4-chlorophenyl)sulfanyl]-2-(tetrahydro-2H-pyran-4-yl)-1,3-oxazol-4-yl}pyridin-2-yl)-1,1-dimethylpiperazin-1-ium]
26.2 nM	CCNC(=O)[C@H]1CC[C@H](c2nc(-c3ccc(C(C)(C)O)nc3)c(Sc3ccc(Cl)cc3)o2)CC1 [Example B5.39, trans-4-{5-[(4-chlorophenyl)sulfanyl]-4-[6-(2-hydroxypropan-2-yl)pyridin-3-yl]-1,3-oxazol-2-yl}-N-ethylcyclohexanecarboxamide]
4140 nM	CC(C)(O)c1ccc(-c2nc(C3CCOCC3)oc2Sc2ccc(C3CC3)cn2)cn1 [Example A7.6, 2-(5-{5-{(5-cyclopropylpyridin-2-yl)sulfanyl]-2-(tetrahydro-2H-pyran-4-yl)-1,3-oxazol-4-yl}pyridin-2-yl)propan-2-ol]
40.3 nM	O=S1(=O)CCN(c2ccc(-c3nc(C4CCOCC4)oc3Sc3ccc(Cl)cc3)cc2)CC1 [Example B5.22, 4-(4-{5-[(4-chlorophenyl)sulfanyl]-2-(tetrahydro-2H-pyran-4-yl)-1,3-oxazol-4-yl}phenyl)thiomorpholine 1,1-dioxide]
